Measured values as given in paper PMC8207694, “Nucleoside transporter-guided cytarabine-conjugated liposomes for intracellular methotrexate delivery and cooperative choriocarcinoma therapy” (Journal of Nanobiotechnology, 2021).

What was measured:
JEG-3 cells [1] = test: Effect of endocytosis inhibitors on liposome uptake; assay type: cell-based, human; details: pre-treatment 30 min; chlorpromazine 50 μM, indomethacin 50 μM, colchicine 10 μM, quercetin 10 μM
Procedure: Endocytosis was studied by adding JEG-3 cells to 6 well-plates and pre-treating them for 30 min with inhibitors of various endocytic pathways including the clathrin-dependent endocytosis inhibitor chlorpromazine (50 μM), the caveolin-dependent endocytosis inhibitor indomethacin (50 μM), the micropinocytosis inhibitor colchicine (10 μM), and quercetin (10 μM) as tools for inhibiting caveolae- or clathrin-independent endocytosis. Then, the medium was removed, and the fresh medium containing Dox-labeled liposomes was added to the plate. The cells were incubated for another 4 h. Subsequent steps were the same as those in uptake assay.

ENT1 [2] = biological target: T1, ENT1 (Homo sapiens, UniProt Q99808); test: Effect of ENT1 competitive inhibitors on MTX formulation cytotoxicity (MTT); details: then 20 μg MTX-equivalent/mL for 48 h; for effect of pre-treatment on toxicity of Cy-Lipo@MTX to JEG-3 cells: inhibitor 0.2-5.0 μM for 2 h
T1 sequence (Q99808 1-456): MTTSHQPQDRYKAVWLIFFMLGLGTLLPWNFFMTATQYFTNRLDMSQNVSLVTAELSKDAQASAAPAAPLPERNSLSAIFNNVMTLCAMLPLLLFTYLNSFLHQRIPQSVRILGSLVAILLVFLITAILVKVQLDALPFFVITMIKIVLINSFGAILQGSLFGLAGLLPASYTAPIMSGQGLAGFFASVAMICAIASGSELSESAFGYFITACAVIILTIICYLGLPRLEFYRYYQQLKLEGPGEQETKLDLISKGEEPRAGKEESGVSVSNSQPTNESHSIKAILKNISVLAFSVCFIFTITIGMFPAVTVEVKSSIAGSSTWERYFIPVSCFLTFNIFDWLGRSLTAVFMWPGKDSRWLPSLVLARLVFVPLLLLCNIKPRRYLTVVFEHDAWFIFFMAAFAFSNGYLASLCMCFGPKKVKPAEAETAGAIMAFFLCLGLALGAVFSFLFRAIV
Procedure: To investigate the effect of ENT1 on MTX formulations induced cytotoxicity, 2′-deoxycytidine and gemcitabine, as competitive inhibitors of ENT1, were cultured with adherent JEG-3 cells for 2 h. Next, the medium was removed, and the fresh medium containing MTX formulations (20 μg MTX-equivalent/mL) was added to the plate. The cells were incubated for another 48 h. MTT reagent was added as previously described, and absorbance was assessed via microplate reader.

ENT1 [3] = biological target: T1, ENT1; test: Competitive inhibition of liposome uptake by ENT1 substrates; assay type: cell-based; set-up: endogenous in cells; host or cells: JEG-3 (human choriocarcinoma cells); details: pre-treatment 2 h, 0.2-5.0 μM, then liposomes 4 h
Procedure: Briefly, different concentration (0.2–5.0 μM) of 2′-deoxycytidine or gemcitabine was cultured with the adherent JEG-3 cells for 2 h. Then, the medium was removed, and the fresh medium containing Dox-labeled liposomes was added to the plate. The cells were incubated for another 4 h. Subsequent steps were the same as those in uptake assay.

JEG-3 cells [4] = test: Specific uptake of cytarabine into the cells (LC/MS); assay type: cell-based, human; details: Cy 5 μM, after 30 min and 1 h; compared with Pricell-0051, MCF-7, HepG2 cells; P < 0.05
Procedure: JEG-3 cells, MCF-7 cells, or HepG2 cells were plated overnight in 6-well plates. Then, the adhered cells were treated with Cy (5 μM) for 30 min or 60 min. Then, cells were washed with PBS for moving the free drug in the medium. After that, the cells were lysed and treated with acetonitrile for precipitating protein. Finally, the content of Cy was detected by LC/MS (8050, SHIMADZU, Japan).

With `COc1ccc2c(c1)c(CC(=O)O)c(C)n2C(=O)c1ccc(Cl)cc1` [indomethacin] the “effect of endocytosis inhibitor on uptake of Dox-labeled Cy-Lipo” value (shortened to “effect of endocytosis inhibitor”) (JEG-3 cells [1]) was “impacted the uptake of Dox-labeled Cy-Lipo to the greatest extent”.

`O=c1c(O)c(-c2ccc(O)c(O)c2)oc2cc(O)cc(O)c12` [Quercetin, quercetin] was tested, and the “effect of endocytosis inhibitor” value (JEG-3 cells [1]) was “a certain inhibitory effect”.

With `COc1cc2c(c(OC)c1OC)-c1ccc(OC)c(=O)cc1[C@@H](NC(C)=O)CC2` [colchicine] the “effect of endocytosis inhibitor” value (JEG-3 cells [1]) was “reduced effect”.

`CN(C)CCCN1c2ccccc2Sc2ccc(Cl)cc21` [chlorpromazine] was tested, and the “effect of endocytosis inhibitor” value (JEG-3 cells [1]) was “next most substantial inhibition”.

With `Nc1ccn([C@@H]2O[C@H](CO)[C@@H](O)C2(F)F)c(=O)n1` [gemcitabine] the “effect of pre-treatment on toxicity of Cy-Lipo@MTX to JEG-3 cells” value (ENT1 [2]) was “significantly reduced the toxicity of Cy-Lipo@MTX to JEG-3 cells”, the “effect of pre-treatment on cytotoxicity of free MTX or Lipo@MTX in JEG-3 cells” value (ENT1 [2]; inhibitor for 2 h) was “little effect” and the “effect on uptake of Dox-labeled Cy-Lipo by JEG-3 cells” value (ENT1 [3]) was “significantly influenced the uptake of Dox-labeled Cy-Lipo at concentrations of 1.0 μM and 5.0 μM”.

For `Cl.Nc1ccn([C@H]2C[C@H](O)[C@@H](CO)O2)c(=O)n1` [deoxycytidine, 2′-deoxycytidine hydrochloride], the “effect of pre-treatment on toxicity of Cy-Lipo@MTX to JEG-3 cells” value (ENT1 [2]) was “significantly reduced the toxicity of Cy-Lipo@MTX to JEG-3 cells”, the “effect on uptake of Dox-labeled Cy-Lipo by JEG-3 cells” value (ENT1 [3]) was “significantly reduce the uptake of Dox-labeled Cy-Lipo by JEG-3 cells in a concentration-dependent manner” and the “effect on uptake of Dox-labeled Lipo by JEG-3 cells” value (ENT1 [3]) was “less of effect”.

In the case of `Nc1ccn([C@@H]2O[C@H](CO)[C@@H](O)[C@@H]2O)c(=O)n1` [Cy, cytosine β-d-arabinofuranoside], the “amount of Cy taken up by JEG-3 cells” value (JEG-3 cells [4]) is reported as “significantly higher than that taken up by Pricell-0051, MCF-7, and HepG2 cells”.
